Reference: patent US12042492B2 (priority 2020, dated 2024)

Assays:
N2a cells = test: Transmission electron microscopy of mitochondrial number and length; assay type: cell-based, mouse; conditions: TEM
Text: Transmission electron microscopy. To determine the effects of ligand 1 on the number and length of mitochondria, the inventors used transmission electron microscopy on cells with untreated N2a cells, […], mAPP, and mAPP+ligand 1.
Transmission electron microscopy of mitochondria. To determine the protective effects ligand 1 the number and morphology of mitochondria and the rescue effects of Ligand 1, on Aβ induced mitochondrial toxicity. The inventors conducted transmission electron microscopy (TEM) of N2a cells from control and experimental treatments (n=4). Treated and untreated N2a cells were fixed in 100 mM sodium cacodylate (pH 7.2), 2.5% glutaraldehyde, 1.6% paraformaldehyde, 0.064% picric acid, and 0.1% ruthenium red. They were gently washed and post-fixed for 1 hr in 1% osmium tetroxide plus […] potassium ferricyanide, in 100 mM sodium cacodylate, pH 7.2. After a thorough rinsing in water, the N2a cells were dehydrated, infiltrated overnight in 1:1 acetone:Epon 812, infiltrated for 1 hr with 100% Epon 812 resin, and embedded in the resin. After polymerization, 60- to 80-nm thin sections were cut on a Reichert ultramicrotome and stained for 5 min in lead citrate. […] The numbers of mitochondria were counted in the control N2a cells (number of cells=50) and experimental groups (number of cells per group=40), and statistical significance was determined, using one-way ANOVA.

[1] = tested on: mAPP transfected N2a cells; test: Cell viability / apoptotic cell death in mAPP transfected N2a cells; assay type: cell-based, mouse
Experimental: The N2a cells grown for 6 days in a serum-free medium (1:1 mixture of DMEM and OptiMEM, plus penicillin and streptomycin (Invitrogen, Carlsbad, CA, USA) until the cells developed neuronal processes. As shown in (FIG. 10), these cells were used for 4 groups—one control group and 3 treatment groups. 1) untreated N2a cells (the control group), 2) N2a cells treated with ligand 1 (N2a+ligand 1), 3) N2a cells transfected mAPP with the (lipofectamine) (20 μM final concentration for 6 hrs (mAPP), 4) N2a cells transfected with mAPP cDNA for 6 hrs, treated with ligand 1 (mAPP+ligand 1 treatment group), N2a cells treated with ligand 1 for 24 hrs and then treated with the mAPP cDNA for 6 hrs (ligand 1+mAPP treatment group). As shown in (FIG. 10), the inventors performed 4 independent cell cultures and treatments for all experiments (n=4).
Cell viability and apoptotic cell death MTT assay. Ligand 1 treated N2a cells, cell based apoptosis assay was performed using Cellometer Vision CBA Image Cytometry System (Nexcelom Bioscience LLC, Lawrence, MA) with two fluorophore Annexin V-FITC and Propidium Iodide (PI) staining solution, according to manufacturer's instructions. Briefly, cells were harvested using trypsin, then spin down at 300 g for three minutes and pellets were washed with 1×PBS, cells were counted using hematocytometer. […]

Substance: [(6As,8S,10aS,12aS)-10a, 12a-dimethyl-2-oxo-3,4,4a,4b,5,6,6a,7,8,9,10,10b,11,12-tetradecahydro-1H-naphtho[2,1-f]quinolin-8-yl] 4-[4-[bis(2-chloroethyl)amino]phenyl]butanoate [Ligand 1]
- Mitochondrial length (N2a cells; cells treated with ligand 1 relative to untreated cells): significantly increased
- Number of mitochondria (N2a cells; mAPP+ligand 1 vs mAPP cells, P=0.01): reduced
- Apoptotic cell death ([1]; mAPP transfected cells): reduced
- Cell viability ([1]; mAPP+ligand 1 compared to mAPP cells, P=0.181): not significantly increased
